Assay results reported in US5965605A, “Inhibition of the binding human IgE to its receptor by tetracyclic compounds for the alleviation of IgE-mediated immune response” (Heska Corporation, priority 1997, dated 1999).

Experiments:
[1] = target: human IgE / soluble FcεRI α (Fc-FcεRIα fusion protein); assay: Protein-based IgE-FcεRI binding assay (ELISA); conditions: for % Inhibition of IgE/FcεRI binding: 10 μg/ml
Method: A protein-based in vitro assay was developed to screen for compounds which block the interaction between IgE and FcεRI. This assay used human IgE and soluble FcεRI α proteins which were prepared as outlined below. As will be described more below, the assay was performed in the format of an Enzyme-linked ImmunoSorbent Assay (ELISA) as follows. ELISA plates were prepared by coating 96-well plates with soluble FcεRI α protein. In the binding step, biotinylated IgE was captured by the FcεRI α in the wells. In the detection step, bound biotinylated IgE was quantitated by the addition of avidin-horseradish peroxidase and a chromogenic substrate. For the screening of antagonists, the IgE and FcεRI binding assay was performed in the presence of various testing compounds. Compounds that inhibit the interaction between IgE and FcεRI α could be readily detected. This assay was then applied to screen tens of thousand of compounds from a diversified chemical library.
To provide IgE for the ELISA, a recombinant IgE DNA construct was built by ligating a mouse heavy chain variable region, Vh, gene fragment to a human IgE heavy chain, Cε.
The growth medium collected from the above transfected cell culture was concentrated 30-50 times by membrane filtration (Filtron, Northboro, Mass.) and passed through a column of NIP (Genosys Biotechnologies Inc.)-bovine serum albumin (BSA) sepharose. The bound IgE was subsequently eluted from NIP-BSA sepharose using 5 M MgCl2. The eluate was then dialyzed in phosphate buffered saline (PBS). The integrity of the purified IgE was analyzed by SDS-polyacrylamide gel electrophoresis.
To provide soluble FcεRI α protein for ELISA, a DNA construct was made to produce soluble FcεRI α as a protein fused to the Fc region of the human immunoglobulin G heavy chain. The protein product of the construct will he termed Fc-FcεRIα.
The culture media of the cells producing Fc-FcεRI α fusion protein was collected and passed through a Protein A Sepharose column (Repligen, Cambridge, Mass.). The bound fusion protein was eluted from the Protein A Sepharose in 100 mM sodium citrate buffer (pH 4.0) and immediately neutralized with 0.1 volume of 1M Tris-hydrochloride, pH 8. The integrity of the purified protein was analyzed by SDS-polyacrylamide gel electrophoresis.
Fc-FcεRIα was diluted to 0.4 μg/ml in PBS and was used to coat 96-well plates. One hundred microliters of the FcεRIα fusion protein was added to wells of the 96-well plates, and the plate was incubated at 4° C. for 20 hr and washed twice with PBS/T (PBS containing 0.05% Tween-20). The non-specific binding sites in each of the wells were blocked with 200 μl of blocking buffer (PBS containing 1% of BSA and 1% of goat serum) at 37° C. for 2 hr. The plates were then washed 4 times with PBS/T and stored frozen at -20° C. The plates were thawed at room temperature just before use.
IgE was biotinylated as follows. Ten microliters of a 40 mg/ml sulfosuccimidyl 6-(biotinamido)-hexanolate (Pierce, Rockford, Ill.) in dimethylsulphoxide was added to 1 ml of 1 mg/ml IgE in sodium bicarbonate buffer, pH 8.0. After a 4 hr incubation at room temperature, the biotinylation was terminated by the addition of 25 μl of 2M Tris hydrochloride, pH 8 and the resulting biotinylated IgE was diayzed against PBS.
One hundred microliter of this solution was added to wells of a 96-well plate which had been previously coated with Fc-FcεRIα. […] After an additional one hour incubation at room temperature,the plate was again washed four times with PBS/T. The reaction with Avidin-HRP was developed by the addition of 100 μl of K-blue (Elisa Technologies, Lexington, Ky.) to each well.

[2] = target: T1, human FcεRI transfected rat basophil leukemia cell line, SX38 (Homo sapiens, UniProt P01854+P12319); assay: Cell-based IgE-FcεRI binding assay; conditions: for IC50: read-out: IC50, inhibition of IgE-FcεRI binding (converted)
T1 construct: biotinylated recombinant IgE (mouse VH, human Cε, J558L)
Method: About 1×10^5 cells in 50 μl of medium were seeded in the wells of 96-well flat bottom plates. […] Forty microliters of this solution was applied to each well and incubated at room temperature for two hours. The plates were washed three times with PBS, and 40 μl of avidin-horseradish peroxidase, at 1 μg/ml in PBS, was added to each well. After an additional hour of incubation at room temperature, the plate was again washed three times with PBS. The subsequent steps for the measurement of the bound IgE were performed as described in the protein-based IgE-FcεRI binding assay.

[3] = test system: IgE/FcεRI; assay: in situ rat passive cutaneous anaphylaxis (PCA) model; type: in vivo, Sprague Dawley rats; conditions: in situ rat PCA model
Excerpt: The tetracyclic compounds that antagonized the IgE and FcεRIα interaction identified in the protein-based assay were further evaluated in the rat PCA model (Haak-Frendscho, et al., J. Immunol., 151:351-358, 1993). […] Mouse anti-dinitrophenyl IgE (Sigma ImmunoChemicals, St. Louis, Mo.) is a bifunctional antibody which binds to dinitrophenyl as well as FcεRI. Exposure of anti-dinitrophenyl-IgE to dinitrophenyl-albumin causes aggregation of the antibody and induces the IgE mediated immune response. […] Fifty microliters of these solutions were injected into the skin of the shaved back of Sprague Dawley rats (Taconic, Germantown, N.Y.). As a positive control, the same amount of anti-dinitrophenyl-IgE in the absence of a tetracyclic compound was injected into the skin of the same rat at a different site. After a period of two hours the sensitized rats were challenged with an intravenous injection of 1 mg/ml of dinitrophenyl-human albumin (Sigma ImmunoChemicals, St. Louis, Mo.) in 1% Evan's blue dye. Thirty minute later, the rats were killed and skinned. Percent inhibition was calculated by the reduction of blue dye at the tetracyclic compound treated injection sites versus the positive control sites.

[4] = test system: rat basophil leukemia cells (RBL cells); assay: Hexosaminidase release assay; type: cell-based; conditions: read-out: % Inhibition of IgE mediated hexosaminidase release
Method: Tetracyclic Compounds that antagonized the IgE and FcεRIα interaction identified in the protein-based assay and cell-based assay were further evaluated in a screening assay using rat basophil leukemia cells (RBL cells). […] About 2×10^5 RBL cells were seeded per well in a 96 well plate and were incubated overnight at 37° C. A mixture of biotinylated mouse IgE (100 μl of 0.125 μg/ml) and a tetracyclic compound, e.g. compound 2, in medium was added lo each well and was incubated for 1 hour at 37° C. The cells were then washed twice with triggering buffer (119 mM NaCl, 5 mM KCl, 25 mM disodium PIPES, 5.6 mM glucose, 1 mM CaCl2, 0.1% BSA), and pre-incubated in triggering buffer for 10 min. at 37° C. One hundred microliters of 0.02 μg/ml streptavidin in triggering buffer was then added and the cells were incubated for an additional 30 min. at 37° C. The 96 well plate is then centrifuged at 4° C. to pellet all cells, and 80 μl of the supernatant is harvested on ice and transferred to another 96 well plate. As a positive control, two aliquots of about 2×10^5 RBL cells were lysed with 100 μl of 0.2% Triton in triggering buffer, and the supernatant was harvested after centrifugation to pellet all cell debris. Addition of streptavidin to RBL cells, which have been incubated with biotinylated IgE will trigger the release of IgE mediated allergy mediators, such as histamine. Antagonization of IgE/FcεRI binding by a tetracyclic compound results in the release of a reduced level of allergy mediators. The release of allergy mediators was quantitated by assaying for the presence of the enzyme hexosaminidase in the supernatant The concentration of hexosaminidase was determined by hydrolysis of its substrate, p-NAG (p-nitrophenyl-N-acetate-[…], Sigma Chemical Co.) in citrate buffer (pH 4.5) at 37° C. for 1 hr.

T1 sequence (P12319 26-257): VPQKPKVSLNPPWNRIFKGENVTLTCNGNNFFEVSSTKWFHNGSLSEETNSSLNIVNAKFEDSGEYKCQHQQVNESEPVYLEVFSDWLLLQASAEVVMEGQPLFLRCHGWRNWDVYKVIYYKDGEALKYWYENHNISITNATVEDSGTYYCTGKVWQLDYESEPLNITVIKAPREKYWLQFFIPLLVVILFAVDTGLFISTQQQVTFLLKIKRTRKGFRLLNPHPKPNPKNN
T1 sequence (P01854 whole entry): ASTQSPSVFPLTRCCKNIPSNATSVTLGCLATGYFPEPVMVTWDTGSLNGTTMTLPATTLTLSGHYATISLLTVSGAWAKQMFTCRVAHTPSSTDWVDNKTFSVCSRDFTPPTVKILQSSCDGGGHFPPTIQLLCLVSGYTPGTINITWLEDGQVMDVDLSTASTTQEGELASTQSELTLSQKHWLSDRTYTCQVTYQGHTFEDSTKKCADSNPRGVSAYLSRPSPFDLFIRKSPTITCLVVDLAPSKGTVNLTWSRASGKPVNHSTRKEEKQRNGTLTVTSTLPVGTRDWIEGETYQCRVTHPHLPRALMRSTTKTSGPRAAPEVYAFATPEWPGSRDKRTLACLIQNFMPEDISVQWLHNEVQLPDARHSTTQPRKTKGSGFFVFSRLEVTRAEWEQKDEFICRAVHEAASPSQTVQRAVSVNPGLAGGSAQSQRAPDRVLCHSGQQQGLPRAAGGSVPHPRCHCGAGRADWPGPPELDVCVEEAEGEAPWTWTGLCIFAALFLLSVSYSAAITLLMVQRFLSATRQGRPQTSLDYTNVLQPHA
T1 sequence (Q01362 whole entry partner): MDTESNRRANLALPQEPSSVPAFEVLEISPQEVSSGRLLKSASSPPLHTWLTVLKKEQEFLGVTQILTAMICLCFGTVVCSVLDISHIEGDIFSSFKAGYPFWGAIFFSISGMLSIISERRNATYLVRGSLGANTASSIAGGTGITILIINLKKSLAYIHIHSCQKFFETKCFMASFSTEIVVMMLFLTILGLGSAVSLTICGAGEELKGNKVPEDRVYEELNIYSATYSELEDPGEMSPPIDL
T1 sequence (P30273 19-86 partner): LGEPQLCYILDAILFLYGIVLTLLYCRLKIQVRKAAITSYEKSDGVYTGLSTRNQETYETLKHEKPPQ

SMILES | IC50, inhibition of IgE/FcεRI binding [1] [µg/mL] | % Inhibition of IgE/FcεRI binding [1] [%] | % Inhibition of IgE-FcεRI binding ([2]; 10 μg/ml) [%] | IC50 [2] [µM] | IC50, inhibition of anaphylaxis in the rat PCA model [3] [µg/mL] | inhibition at 0.1 µg/mL ([4]; 0.1 μg/ml) [%] | inhibition at 0.62 µg/mL ([4]; 0.62 μg/ml) [%] | inhibition at 1.25 µg/mL ([4]; 1.25 μg/ml) [%] | inhibition at 2.5 µg/mL ([4]; 2.5 μg/ml) [%] | inhibition at 5 µg/mL ([4]; 5 μg/ml) [%] | inhibition at 10 µg/mL ([2]; 10 μg/ml) [%]
O=C(O)c1c(Cl)c(Cl)c(Cl)c(Cl)c1-c1c2cc(I)c(=O)c(I)c-2oc2c(I)c(O)c(I)cc12 (single isomer, unassigned) [Compound 2] | 0.38 | 100 | 62 | 5.65 | 1.10 | 11 | 19 | 75 | 96 | 94 | –
CCOC(=O)c1c(Cl)c(Cl)c(Cl)c(Cl)c1-c1c2cc(Br)c(=O)c(Br)c-2oc2c(Br)c(O)c(Br)cc12 [Compound 3] | 4.30 | 90 | – | – | – | – | – | – | – | – | –
CCOC(=O)c1ccccc1-c1c2cc(Br)c(=O)c(Br)c-2oc2c(Br)c(O)c(Br)cc12 [Compound 4] | 0.82 | 98 | – | 5.33 | 2.90 | – | – | – | – | – | 93
O=C(O)c1c(Cl)ccc(Cl)c1-c1c2cc(I)c(=O)c(I)c-2oc2c(I)c(O)c(I)cc12 [Compound 5] | 0.56 | 99 | – | – | – | – | – | – | – | – | –
O=C(O)c1c(Cl)c(Cl)c(Cl)c(Cl)c1-c1c2ccc(=O)c(O)c-2oc2c(O)c(O)ccc12 [Compound 6] | 0.63 | 83 | – | – | – | – | – | – | – | – | –
COC(=O)c1ccccc1-c1c2cc(Br)c(=O)c(Br)c-2oc2c(Br)c(O)c(Br)cc12 [Compound 7] | 1.46 | 87 | – | 6.65 | – | – | – | – | – | – | 84
O=c1c(Br)cc2c(-c3ccccc3S(=O)(=O)O)c3cc(Br)c(O)c(O)c3oc-2c1O [Compound 8] | 0.65 | 87 | – | – | – | – | – | – | – | – | –
